Measurements taken from the NIST ThermoML archive (doi:10.1016/j.fluid.2013.06.041).

Assays:
[1] = 101.33 kPa, Liquid, Vibrating tube method
[2] = molar heat capacity at constant pressure; settings: 101.33 kPa, Liquid, Small sample (50 mg) DSC
[3] = xn = mol fraction of the nth substance listed; settings: 101 kPa, Liquid, Small sample (50 mg) DSC

OCCO [1,2-ethanediol]
Settings | mass density, 283.15 K [kg/m3] | mass density, 293.15 K [kg/m3] | mass density, 303.15 K [kg/m3] | mass density, 313.15 K [kg/m3] | molar heat capacity at constant pressure, 283.15 K [J/K/mol] | molar heat capacity at constant pressure, 293.15 K [J/K/mol] | molar heat capacity at constant pressure, 298.15 K [J/K/mol] | molar heat capacity at constant pressure, 303.15 K [J/K/mol] | molar heat capacity at constant pressure, 313.15 K [J/K/mol]
[1] | 1120.39 | 1113.34 | 1106.23 | 1099.07 | – | – | – | – | –
[2] | – | – | – | – | 145.38 | 148.53 | 150.22 | 151.96 | 155.49

OCCO [1,2-ethanediol] + O
excess molar heat capacity [J/K/mol], [3]
Settings | 283.15 K | 293.15 K | 298.15 K | 303.15 K | 313.15 K
x1 = 0.00991 | 0.43 | 0.3 | 0.26 | 0.26 | 0.37
x1 = 0.02619 | 0.87 | 0.79 | 0.76 | 0.75 | 0.74
x1 = 0.04637 | 1.03 | 1.25 | 1.33 | 1.39 | 1.5
x1 = 0.07516 | 1.32 | 1.72 | 1.85 | 1.96 | 2.17
x1 = 0.09514 | – | – | 1.99 | 2.2 | 2.5
x1 = 0.1016 | 1.26 | – | – | – | –
x1 = 0.1245 | 1.16 | 1.91 | 2.17 | 2.38 | 2.76
x1 = 0.1491 | 0.94 | 1.76 | 2.08 | 2.35 | 2.82
x1 = 0.1731 | 0.76 | 1.68 | 2.01 | 2.29 | –
x1 = 0.2203 | – | – | – | – | 2.62
x1 = 0.2903 | – | 0.61 | 1.14 | 1.6 | 2.42
x1 = 0.4076 | – | 0.05 | 0.54 | 0.98 | 1.82
x1 = 0.4641 | – | – | 0.35 | 0.78 | 1.58
x1 = 0.6066 | – | – | 0.02 | 0.035 | 0.96
x1 = 0.6959 | – | – | – | 0.15 | 0.63
x1 = 0.804 | – | – | – | – | 0.18
